Laboratory results taken from patent US4471131A, “Novel silyl esters of N-phosphonomethylglycine” (Monsanto Company, priority 1983, dated 1984).

Tests used:
Assay in all cases: post-emergence herbicidal activity, greenhouse
Assay type in all cases: in vivo
Morningglory = tested on: Morningglory
Method in brief: (§1)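 Greenhouse-grown seedlings in soil pans; post-emergence atomizer spray at 2–3 weeks; injury against controls observed twice, near weeks 2 and 4.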

Panicum Spp = details: Table III, formulated in anhydrous tetrahydrofuran
Method in brief: as §1

Quackgrass = details: Table II
Method in brief: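 Plants grown from seed or vegetative propagules in topsoil pans on a greenhouse sand bench, watered from below, were atomizer-sprayed at two to three weeks of age. The spray carried about 0.4% by weight emulsifier. Injury relative to unsprayed control pans was scored approximately two and four weeks after treatment.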

Wild Buckwheat = details: Table III, formulated in anhydrous tetrahydrofuran
Method in brief: as §1

Barnyardgrass = tested on: Barnyardgrass
Method in brief: as §1

Sugar Beet = details: Table III, formulated in anhydrous tetrahydrofuran
Method in brief: as §1

Rice = details: Table III, formulated in anhydrous tetrahydrofuran
Method in brief: as §1

Pennsylvania Smartweed = tested on: Pennsylvania Smartweed
Method in brief: as §1

Canada Thistle = details: Table II
Method in brief: as §1

Soybean = details: Table III, formulated in anhydrous tetrahydrofuran
Method in brief: as §1

[1] = Table II, 2 WAT, 5.6 kg/h, formulated in anhydrous tetrahydrofuran
[2] = Table II, 2 WAT, 11.2 kg/h, formulated in anhydrous tetrahydrofuran
[3] = Table II, 4 WAT, 11.2 kg/h, formulated in anhydrous tetrahydrofuran
[4] = Table III, 2 WAT, 1.1 kg/h, formulated in anhydrous tetrahydrofuran
[5] = Table III, 2 WAT, 5.6 kg/h, formulated in anhydrous tetrahydrofuran
[6] = Table III, 2 WAT, .28 kg/h, formulated in anhydrous tetrahydrofuran
[7] = Table III, 4 WAT, 5.6 kg/h, formulated in anhydrous tetrahydrofuran
[8] = 2 WAT, 5.6 kg/h, formulated in anhydrous tetrahydrofuran
[9] = 2 WAT, 11.2 kg/h, formulated in anhydrous tetrahydrofuran
[10] = 4 WAT, 11.2 kg/h, formulated in anhydrous tetrahydrofuran

CC(C)(C)[Si](OP(=O)(O)CNCC(=O)O)(c1ccccc1)c1ccccc1 [Ex. 5, Glycine, N-((([(1,1-Dimethylethyl)Diphenylsilyl]oxy)-Hydroxyphosphinyl)-Methyl)-,] was tested, and the “Plant Response Index (D)” value (Morningglory; Table II, 2 WAT, 5.6 kg/h) was 1 (25-49% inhibition), the “Plant Response Index (D)” value (Morningglory; [1]) was 1 (25-49% inhibition) and the “Plant Response Index (D)” value (Morningglory; Table II, 2 WAT, 11.2 kg/h) was 1 (25-49% inhibition). For the same compound, the “Plant Response Index (D)” value (Morningglory; [2]) was 1 (25-49% inhibition), the “Plant Response Index (D)” value (Morningglory; Table II, 4 WAT, 5.6 kg/h) was 1 (25-49% inhibition) and the “Plant Response Index (D)” value (Morningglory; Table II, 4 WAT, 11.2 kg/h) was 1 (25-49% inhibition). The “Plant Response Index (D)” value (Morningglory; [3]) was 1 (25-49% inhibition), the “Plant Response Index (D)” value (Morningglory; [4]) was 0 (0-24% inhibition) and the “Plant Response Index (D)” value (Morningglory; [5]) was 1 (25-49% inhibition). For the same compound, the “Plant Response Index (D)” value (Morningglory; [6]) was 0 (0-24% inhibition), the “Plant Response Index (D)” value (Morningglory; [7]) was 0 (0-24% inhibition) and the “Plant Response Index (S)” value (Panicum Spp; 2 WAT, 1.1 kg/h) was 0 (0-24% inhibition). The “Plant Response Index (S)” value (Panicum Spp; 2 WAT, 5.6 kg/h) was 0 (0-24% inhibition), the “Plant Response Index (S)” value (Panicum Spp; 2 WAT, .28 kg/h) was 0 (0-24% inhibition) and the “Plant Response Index (S)” value (Panicum Spp; 4 WAT, 5.6 kg/h) was 0 (0-24% inhibition). The “Plant Response Index (H)” value (Quackgrass; 2 WAT, 5.6 kg/h) was 0 (0-24% inhibition), the “Plant Response Index (H)” value (Quackgrass; [8]) was 0 (0-24% inhibition) and the “Plant Response Index (H)” value (Quackgrass; 2 WAT, 11.2 kg/h) was 0 (0-24% inhibition). The “Plant Response Index (H)” value (Quackgrass; [9]) was 0 (0-24% inhibition), the “Plant Response Index (H)” value (Quackgrass; 4 WAT, 5.6 kg/h) was 0 (0-24% inhibition) and the “Plant Response Index (H)” value (Quackgrass; 4 WAT, 11.2 kg/h) was 1 (25-49% inhibition). The “Plant Response Index (H)” value (Quackgrass; [10]) was 0 (0-24% inhibition), the “Plant Response Index (Q)” value (Wild Buckwheat; 2 WAT, 1.1 kg/h) was 0 (0-24% inhibition) and the “Plant Response Index (Q)” value (Wild Buckwheat; 2 WAT, 5.6 kg/h) was 1 (25-49% inhibition). The “Plant Response Index (Q)” value (Wild Buckwheat; 2 WAT, .28 kg/h) was 0 (0-24% inhibition), the “Plant Response Index (Q)” value (Wild Buckwheat; 4 WAT, 5.6 kg/h) was 0 (0-24% inhibition) and the “Plant Response Index (K)” value (Barnyardgrass; Table II, 2 WAT, 5.6 kg/h) was 0 (0-24% inhibition). For the same compound, the “Plant Response Index (K)” value (Barnyardgrass; [1]) was 0 (0-24% inhibition), the “Plant Response Index (K)” value (Barnyardgrass; Table II, 2 WAT, 11.2 kg/h) was 1 (25-49% inhibition) and the “Plant Response Index (K)” value (Barnyardgrass; [2]) was 1 (25-49% inhibition). The “Plant Response Index (K)” value (Barnyardgrass; Table II, 4 WAT, 5.6 kg/h) was 0 (0-24% inhibition), the “Plant Response Index (K)” value (Barnyardgrass; Table II, 4 WAT, 11.2 kg/h) was 2 (50-74% inhibition) and the “Plant Response Index (K)” value (Barnyardgrass; [3]) was 0 (0-24% inhibition). The “Plant Response Index (K)” value (Barnyardgrass; [4]) was 0 (0-24% inhibition), the “Plant Response Index (K)” value (Barnyardgrass; [5]) was 0 (0-24% inhibition) and the “Plant Response Index (K)” value (Barnyardgrass; [6]) was 0 (0-24% inhibition). The “Plant Response Index (K)” value (Barnyardgrass; [7]) was 0 (0-24% inhibition), the “Plant Response Index (M)” value (Sugar Beet; 2 WAT, 1.1 kg/h) was 0 (0-24% inhibition) and the “Plant Response Index (M)” value (Sugar Beet; 2 WAT, 5.6 kg/h) was 0 (0-24% inhibition). For the same compound, the “Plant Response Index (M)” value (Sugar Beet; 2 WAT, .28 kg/h) was 0 (0-24% inhibition), the “Plant Response Index (M)” value (Sugar Beet; 4 WAT, 5.6 kg/h) was 0 (0-24% inhibition) and the “Plant Response Index (O)” value (Rice; 2 WAT, 1.1 kg/h) was 0 (0-24% inhibition). For the same compound, the “Plant Response Index (O)” value (Rice; 2 WAT, 5.6 kg/h) was 0 (0-24% inhibition), the “Plant Response Index (O)” value (Rice; 2 WAT, .28 kg/h) was 0 (0-24% inhibition) and the “Plant Response Index (O)” value (Rice; 4 WAT, 5.6 kg/h) was 0 (0-24% inhibition). For the same compound, the “Plant Response Index (F)” value (Pennsylvania Smartweed; Table II, 2 WAT, 5.6 kg/h) was 0 (0-24% inhibition), the “Plant Response Index (F)” value (Pennsylvania Smartweed; [1]) was 0 (0-24% inhibition) and the “Plant Response Index (F)” value (Pennsylvania Smartweed; Table II, 2 WAT, 11.2 kg/h) was 2 (50-74% inhibition). For the same compound, the “Plant Response Index (F)” value (Pennsylvania Smartweed; [2]) was 0 (0-24% inhibition), the “Plant Response Index (F)” value (Pennsylvania Smartweed; Table II, 4 WAT, 5.6 kg/h) was 0 (0-24% inhibition) and the “Plant Response Index (F)” value (Pennsylvania Smartweed; Table II, 4 WAT, 11.2 kg/h) was 2 (50-74% inhibition). The “Plant Response Index (F)” value (Pennsylvania Smartweed; [3]) was 0 (0-24% inhibition), the “Plant Response Index (F)” value (Pennsylvania Smartweed; [4]) was 0 (0-24% inhibition) and the “Plant Response Index (F)” value (Pennsylvania Smartweed; [5]) was 1 (25-49% inhibition). For the same compound, the “Plant Response Index (F)” value (Pennsylvania Smartweed; [6]) was 0 (0-24% inhibition), the “Plant Response Index (F)” value (Pennsylvania Smartweed; [7]) was 1 (25-49% inhibition) and the “Plant Response Index (A)” value (Canada Thistle; 2 WAT, 5.6 kg/h) was 1 (25-49% inhibition). The “Plant Response Index (A)” value (Canada Thistle; [8]) was 0 (0-24% inhibition), the “Plant Response Index (A)” value (Canada Thistle; 2 WAT, 11.2 kg/h) was 1 (25-49% inhibition) and the “Plant Response Index (A)” value (Canada Thistle; [9]) was 0 (0-24% inhibition). For the same compound, the “Plant Response Index (A)” value (Canada Thistle; 4 WAT, 5.6 kg/h) was 1 (25-49% inhibition), the “Plant Response Index (A)” value (Canada Thistle; 4 WAT, 11.2 kg/h) was 1 (25-49% inhibition) and the “Plant Response Index (A)” value (Canada Thistle; [10]) was 1 (25-49% inhibition). The “Plant Response Index (L)” value (Soybean; 2 WAT, 1.1 kg/h) was 1 (25-49% inhibition), the “Plant Response Index (L)” value (Soybean; 2 WAT, 5.6 kg/h) was 1 (25-49% inhibition) and the “Plant Response Index (L)” value (Soybean; 2 WAT, .28 kg/h) was 1 (25-49% inhibition). The “Plant Response Index (L)” value (Soybean; 4 WAT, 5.6 kg/h) was 0 (0-24% inhibition).
